Laboratory results reported in patent US10023922B2, “Reporter of genomic methylation and uses thereof” (Whitehead Institute for Biomedical Research, priority 2015, dated 2018).

Tested on: Gapdh and Dazl reporter constructs
Assay: In vitro methylation of reporter plasmids, checked by bisulfite conversion, PCR amplification and sequencing
Format: biochemical
Conditions: FIGS. 2A and 2B
Source text: Conversely, we were interested to assess whether a methylated and silent donor Snrpn promoter can be reactivated by means of demethylation acquired in vivo. For this we used the CpG methyltransferase M.SssI to in vitro methylate both Gapdh and Dazl reporter constructs.
Bisulfite conversion of DNA was established using the EpiTect Bisulfite Kit (Qiagen) following the manufacturer's instructions. The resulting modified DNA was amplified by first round of nested PCR, following a second round using loci specific PCR primers (see complete list of primers below). The first round of nested PCR was done as follows: 94° C. for 4 min; 55° C. for 2 min; 72° C. for 2 min; Repeat steps 1-3 1×; 94° C. for 1 min; 55° C. for 2 min; 72° C. for 2 min; Repeat steps 5-7 35×; 72° C. for 5 min; Hold 12° C. The second round of PCR was as followed: 95° C. for 4 min; 94° C. for 1 min; 55° C. for 2 min; 72° C. for 2 min; Repeat steps 2-4 35×; 72° C. for 5 min; Hold 12° C. The resulting amplified products were gel-purified, subcloned into A pCR2.1-TOPO-TA cloning vector (Life Technologies), and sequenced.

In the case of “M.SssI: CpG methyltransferase used to in vitro methylate reporter constructs”, the “methylation of CGI and Snrpn promoter regions of the treated plasmids” value was “complete hypermethylation”.
